The results in this text go back to patent publication US7410971B2, “1,2-di(cyclic)substituted benzene compounds” (Eisai R&D Management Co., Ltd., priority 2003, dated 2008).

Assay [1] has as its system DSS-induced colitis. The assay can be described thus: DSS-induced colitis model. Type of assay: in vivo, Balb/c mice. The following applies: 30 mg/kg orally once a day for 5-7 successive days; 1-3% DSS in water for 5-7 days. The text has this:
Evaluation of Compounds in DSS-Induced Colitis Model
A 1-3% solution of dextran sulfate sodium (hereinafter abbreviated as DSS; ICN) in purified water (Otsuka Pharmaceutical) was fed freely to 6- to 7-week-old male Balb/c mice (Charles River Japan) for 5-7 days to induce colitis. Disease Activity Index (hereinafter abbreviated as DAI) scored based on fecal hardness, blood content in feces and body weight change, the number of neutrophils infiltrating the colon and the length of the colon were used as indexes to evaluate compounds. Each compound was suspended or dissolved in an aqueous solution containing 0.5% methyl cellulose (Wako), and orally administered at 30 mg/kg once a day, for 5-7 successive days.

Assay [2] deals with Jurkat cells. Description: Jurkat cell adhesion system (adhesion to immobilized human fibronectin, PMA-stimulated). The note with it: concentration inhibiting by 50% the PMA-stimulated increase in number of adhered Jurkat cells on human fibronectin. Format: cell-based. Here is the method: Evaluation of Compounds in Jurkat Cell Adhesion System
<Immobilization of Human Fibronectin in 96-Well Plate>
Human fibronectin (Becton Dickinson Biosciences) was diluted with phosphate-buffered saline (hereinafter abbreviated as PBS; Sigma) to 0.1-0.01 μg/ml, and the diluted solution was added to a 96-well plate (Becton Dickinson) at 50μ/well, and allowed to stand overnight at 4° C. On the following day, the supernatant was removed from the plate, and then PBS containing 1% bovine serum albumin (hereinafter abbreviated as BSA; Sigma) was added thereto at 100 μl/well and incubation was performed at 37° C. for 2 hours in a CO2 incubator (Hirasawa).
The supernatant was removed from each plate and Jurkat cells suspended in RPMI-1640 (Sigma) containing 1 mg/ml BSA were added at 80 μl/well for 2.5×10^5 cells/well. The compound diluted to different concentrations with RPMI-1640 containing 1 mg/ml BSA was immediately added at 10 μl/well, and then 100 nM phorbol myristate acetate (hereinafter abbreviated as PMA; Sigma) in RPMI-1640 containing 1 mg/ml BSA was added at 10 μl/well and the plate was incubated in a CO2 incubator at 37° C. for 45-60 minutes. The supernatant was removed from the plate and each well was washed several times with 100 μl/well of RPMI-1640, after which 50 mM citrate buffer (pH 5.0) containing 3.75 mM p-nitrophenol-N-acetyl-β-D-glucosaminide (Sigma) and 0.25% Triton X-100 (Sigma) were added at 60 μl/well, and the mixture was placed in a CO2 incubator and incubated at 37° C. for 45 minutes. After incubation, 50 mM glycine buffer (pH 10.4) containing 5 mM EDTA was added at 90 μl/well, and the absorbance at 405 nm was measured with an EL340 Automated Microplate Reader (BIO-TEK) to determine the adhered cell count. The concentration of each compound which inhibited the increase in the number of adhered cells by the PMA-stimulation by 50% was recorded as the IC50 (μM).

Turning to `CCCCN1CCN(c2cc(C#N)ccc2[C@H]2CC[C@@H](C(C)(C)C)CC2)CC1.Cl` [Example 12, cis-4-(4-t-Butylcyclohexyl)-3-(4-butylpiperazine-1-yl)benzonitrile hydrochloride], the “improvement in comparison with the DSS control group (DAI, number of neutrophils infiltrating the colon, length of the colon)” value in assay [1] is on record as “particularly good improvement”. This molecule gave an IC50 in assay [2] of 3.1 µM.

Consider `CCCCN1CCN(c2cc(C#N)ccc2[C@H]2CC[C@H](C(C)(C)C)CC2)CC1.Cl` [Example 13, trans-4-(4-t-Butylcyclohexyl)-3-(4-butylpiperazin-1-yl)benzonitrile hydrochloride], for which the “improvement in comparison with the DSS control group (DAI, number of neutrophils infiltrating the colon, length of the colon)” value in assay [1] is reported as “particularly good improvement”. Also, the IC50 in assay [2] came out at 3.9 µM.

The IC50 is the concentration at which inhibition is half-maximal. The low end stands for inhibition by little substance, the high end for a need for much substance.
